Assay results taken from US10842795B1, “Chemosensitization of resistant Pseudomonas aeruginosa by synthetically related compounds” (King Abdulaziz University, priority 2020, dated 2020).
“Also recorded” adds a separate entry of the source.

Key:
[1] = test system: Pseudomona aeruginosa ATCC 27853; assay: Cup diffusion (agar plate diffusion) assay of ciprofloxacin chemosensitization; assay type: cell-based, Pseudomonas aeruginosa; details: 200 μM compound with CPX, MDR-Pa, in words
Experimental: ^1H NMR (400 MHz, DMSO-d6) δ 9.88 (s, 1H), 7.66 (dd, J=1.51, 7.78 Hz, 2H), 7.53-7.62 (m, 3H), 7.43-7.51 (m, 3H), 7.37-7.43 (m, 2H), 7.29-7.37 (m, 1H), 7.07-7.12 (m, 2H), 6.95-7.02 (m, 1H), 6.87 (d, J=15.81 Hz, 1H), 4.19 (q, J=7.11 Hz, 2H), 1.25 (t, J=7.15 Hz, 3H). Biological Screening Efflux Pump Inhibition (EPI) Screening Methodology: Bacterial isolate. Pseudomona aeruginosa ATCC 27853 stored at −70° C. in Trypticase soy broth supplemented with 10% glycerol was recovered for testing. Tests performed. Cup diffusion assay was performed to assess interaction between Ciprofloxacin CPX and 24 compounds. CPX minimum inhibitory concentrations (MICs) were determined alone and in the presence of each compound at concentrations ranging from 2000 to 62.5 μg/mL against P. aeruginosa. A fixed concentration of 200 μM of each compound was selected for testing.
Briefly, Petri dishes (90 mm) were filled with 25 mL Muller-Hinton agar containing 1 mL bacterial culture (1×10^6 CFU/mL) and 200 μM of each compound. The strains were inoculated separately. Six holes (5 mm in diameter) were made in the seeded agar plates. The holes were then filled with 20 μL of each concentration of CPX, plate with CPX only was served as control. Dishes were then incubated for 24 h at 37° C. The MIC was recorded as the lowest concentration that inhibits the growth of the bacterial strains. […] All assays were performed in triplicate and MIC's values are given in μg/mL. The inhibition zone was measured using a caliper.
The agar plate diffusion test (Zou, He et al. 2019) was utilized to qualitatively evaluate the ciprofloxacin killing effect on MDR-Pa in absence (control) and in presence of our designed efflux pump inhibitors.

MDR-Pa = assay: Pseudomonas aeruginosa liquid killing assay on C. elegans (chemosensitization of MDR-Pa); assay type: in vivo; details: for C. elegans + 100 μg/mL CPX) MIC: MDR-Pa infected C. elegans, in presence of 100 μg/mL CPX; for Survival x/50 in presence of CAB compounds at 100 μM: 100 μM CAB compound + 100 μg/mL CPX; for Survival x/50 in presence of CAB compounds at 200 μM: 200 μM CAB compound + 100 μg/mL CPX; for Survival x/50 in presence of CAB compounds at 25 μM: 25 μM CAB compound + 100 μg/mL CPX; for Survival x/50 in presence of CAB compounds at 50 μM: 50 μM CAB compound + 100 μg/mL CPX; for Activity in C. elegans model (survival and motility), in words: MDR-Pa infected C. elegans with CPX
Experimental: In vivo EPI activity of compounds that illustrated an MIC against P. aeruginosa. ATCC 27853 were tested on C. elegans using the liquid killing assay (LKA). Briefly, eggs of C. elegans were hatched on lawns of E. coli OP50 on nematode growth medium agar. Worms were grown to L4 stage by incubation at 25° C. for 48 h. Worms were washed off the plate with M9 buffer, deposited onto lawns of E. coli OP50 or P. aeruginosa. ATCC 27853 and the plates were incubated at 25° C. for 16 h. OP50-fed or P. aeruginosa-infected worms were washed from the plate with M9 buffer, allowed to settle to bottom of Eppendorf tubes, and rinsed with M9 buffer. The M9 was then removed and worms were resuspended in 5 mL liquid killing medium (80% M9 and 20% nematode growth medium (NGMII)) and 95 μL aliquots with approximately 50 worms were added to the wells of 96-microtiter plates with or without test compounds at the indicated concentration ranges (starting from 200 μM) in presence of sub-MIC concentration of CPX (100 μg/mL). As a control, worms treated without test compound contained an equivalent amount of DMSO in the assay medium. Plates were scored for live worms at the time of inoculation and incubated at 37° C. for 24 h. Using a dissecting microscope, worms were considered dead if they appeared straight, and alive if they appeared S-shaped and were moving.
C. elegans is a very efficient whole organism test. The worm develops several reliable disease pathways and can be recruited to measure therapeutic activities of compounds. The technique bears several advantages such as low cost, there is no need for special growth or assay conditions (c.f. animal house and expensive caring for in vivo test on mammalians such as rats) (Kaletta and Hengartner 2006) and there are no ethical issues with consuming animals. In our particular assay, C. elegans can be infected and killed by Pa, and therefore, can be used for identifying compounds that help to protect the worm from pathogenic bacteria (Ewbank and Zugasti 2011).
We used the assay to measure the CAB N-alkyl derivatives CAB-30, CAB-35, CAB-36, CAB-37, CAB-38, CAB-40, CAB-41, CAB-42 and CAB-43 ability to protect C. elegans against MDR-Pa.

[2] = Solubility (qualitative statement); assay type: physicochemical; details: in words
Pgp [3] = molecular target: T1, Pgp (Homo sapiens, UniProt P08183); assay: Rhodamine123 (R123) efflux assay in K562 Adr500 cells; assay type: cell-based; details: in words
T1 construct: highly resistant cells K562 Adr500 which keep R123 outside the cancer cells; endogenous in cells; host or cells: K562 Adr500 (adriamycin-resistant human leukemia K562 cells)
T1 sequence (P08183 whole entry): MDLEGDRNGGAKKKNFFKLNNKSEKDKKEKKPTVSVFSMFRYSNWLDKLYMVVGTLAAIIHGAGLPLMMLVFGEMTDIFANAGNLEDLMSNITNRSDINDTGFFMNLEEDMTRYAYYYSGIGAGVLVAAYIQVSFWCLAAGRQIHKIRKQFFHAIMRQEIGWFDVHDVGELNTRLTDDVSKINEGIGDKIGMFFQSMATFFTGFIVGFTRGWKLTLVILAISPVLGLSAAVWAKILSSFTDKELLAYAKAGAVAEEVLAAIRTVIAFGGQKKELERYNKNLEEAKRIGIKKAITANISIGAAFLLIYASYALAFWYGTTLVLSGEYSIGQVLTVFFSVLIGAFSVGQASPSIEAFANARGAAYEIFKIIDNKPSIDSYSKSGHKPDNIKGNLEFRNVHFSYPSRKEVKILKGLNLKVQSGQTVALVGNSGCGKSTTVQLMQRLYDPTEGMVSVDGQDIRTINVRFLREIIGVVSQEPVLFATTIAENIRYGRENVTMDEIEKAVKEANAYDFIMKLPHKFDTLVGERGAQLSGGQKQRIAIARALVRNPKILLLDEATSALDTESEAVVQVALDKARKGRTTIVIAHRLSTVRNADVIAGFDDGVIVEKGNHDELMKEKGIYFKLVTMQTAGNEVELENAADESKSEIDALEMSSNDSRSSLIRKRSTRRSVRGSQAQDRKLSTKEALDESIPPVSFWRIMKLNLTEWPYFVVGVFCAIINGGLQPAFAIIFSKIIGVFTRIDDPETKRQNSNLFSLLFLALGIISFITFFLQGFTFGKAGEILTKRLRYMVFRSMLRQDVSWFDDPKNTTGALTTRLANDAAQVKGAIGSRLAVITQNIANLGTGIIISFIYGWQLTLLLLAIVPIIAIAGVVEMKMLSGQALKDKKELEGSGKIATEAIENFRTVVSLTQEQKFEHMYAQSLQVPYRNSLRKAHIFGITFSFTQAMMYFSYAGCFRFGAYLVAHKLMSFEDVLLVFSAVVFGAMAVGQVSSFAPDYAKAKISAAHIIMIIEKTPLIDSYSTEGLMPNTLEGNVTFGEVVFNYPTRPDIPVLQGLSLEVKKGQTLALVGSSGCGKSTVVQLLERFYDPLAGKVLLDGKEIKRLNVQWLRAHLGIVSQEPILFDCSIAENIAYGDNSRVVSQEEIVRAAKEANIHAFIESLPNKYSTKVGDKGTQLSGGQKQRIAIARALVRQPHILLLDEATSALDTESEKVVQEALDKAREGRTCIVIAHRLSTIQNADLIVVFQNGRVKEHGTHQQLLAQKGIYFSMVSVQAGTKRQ
Experimental: The cells (10^5) were counted and suspended in 1 ml RPMI medium. The appropriate CAB derivative (0.5 μM) was added to the medium alongside 1, 5 or 10 μM WYE-354, or 100 μM Verapamil as control inhibitors and incubated for 60 min at 37° C. Upon dye uptake, the cells were pelleted by centrifugation at 250×g for 5 min at 4° C. in a cold centrifuge. The harvested cells were washed twice with 1× ice-cold PBS and resuspended in 1 ml RPMI with the inhibitors alone, and reincubated for an additional 60 min at 37° C. to allow the efflux of R123. The cells were subsequently washed twice with ice-cold PBS and analyzed immediately on a BD FACSAria III. A minimum of 5,000 events were recorded for analysis.
We studied the selectivity of CAB-38 by testing its Pgp inhibition (human efflux protein) activities. This assay was performed by measuring the retention of Rhodamine123 (R123) dye (substrate of Pgp) in human leukemia cell lines K562. The negative control of experiment is composed of highly resistant cells K562 Adr500 which keep R123 outside the cancer cells (FIG. 3A). The positive control is performed by repeating the same experiment after incubation of cells with everolimus sub-cytotoxic dose, a powerful Pgp inhibitor (FIG. 3B). The test compound was incubated with K562 Adr500 and then added R123 dye. […]

Pgp [4] = molecular target: T1, Pgp; details: reported earlier (El-Araby, Omar et al. 2017); cited from earlier work

Row | Compound | Enhancement of CPX antibiotic activity (chemosensitization, inhibition zone) [1] | C. elegans + 100 μg/mL CPX) MIC (MDR-Pa) | Survival x/50 in presence of CAB compounds at 100 μM (MDR-Pa) [x/50] | Survival x/50 in presence of CAB compounds at 200 μM (MDR-Pa) [x/50] | further results
1 | COc1ccc(NC(=O)/C(=C/C=C/c2ccccc2)NC(=O)C=Cc2ccccc2)cc1 [CAB-32, (2Z,4E)-2-cinnamamido-N-(4-methoxyphenyl)-5-phenylpenta-2,4-dienamide] | weak activities |  |  |  | 
2 | N#Cc1cccc(NC(=O)/C(=C/C=C/c2ccccc2)NC(=O)C=Cc2ccccc2)c1 [CAB-36, (2Z,4E)-2-cinnamamido-N-(3-cyanophenyl)-5-phenylpenta-2,4-dienamide] | moderate chemosensitization activities | Died |  |  | Solubility [2]: poor solubility
3 | CC(C)NC(=O)/C(=C/C=C/c1ccccc1)NC(=O)C=Cc1ccccc1 [CAB-43, (2Z,4E)-2-cinnamamido-N-isopropyl-5-phenylpenta-2,4-dienamide] |  | Died |  |  | 
4 | CCOC(=O)/C(=C/C=C/c1ccccc1)NC(=O)C=Cc1ccccc1 [CAB-21, Ethyl (2Z,4E)-2-Cinnamamido-5-Phenylpenta-2,4-Dienoate] | weak activities |  |  |  | 
5 | CCCCNC(=O)/C(=C/C=C/c1ccccc1)NC(=O)C=Cc1ccccc1 [CAB-42, (2Z,4E)-N-butyl-2-cinnamamido-5-phenylpenta-2,4-dienamide] |  | 100 µM | 5 | 45 | 
6 | O=C(C=Cc1ccccc1)N/C(=C\C=C\c1ccccc1)C(=O)N1CCOCC1 [CAB-38, N-((2Z,4E)-1-morpholino-1-oxo-5-phenylpenta-2,4-dien-2-yl)cinnamamide] |  | 25 µM | 10 | 40 | Survival x/50 in presence of CAB compounds at 25 μM (MDR-Pa): 3 x/50; Survival x/50 in presence of CAB compounds at 50 μM (MDR-Pa): 5 x/50; Pgp inhibition (retention of R123 dye in cells) (Pgp [3]): poor inhibitor of Pgp; also recorded: no inhibition observed; also recorded: not retention of R123 dye; Solubility [2]: improved solubility
7 | CO[C@H]1C[C@@H]2CC[C@@H](C)[C@@](O)(O2)C(=O)C(=O)N2CCCC[C@H]2C(=O)O[C@H]([C@H](C)C[C@@H]2CC[C@@H](OCCO)[C@H](OC)C2)CC(=O)[C@H](C)/C=C(\C)[C@@H](O)[C@@H](OC)C(=O)[C@H](C)C[C@H](C)/C=C/C=C/C=C/1C [everolimus, reference compound] |  |  |  |  | Pgp inhibition (retention of R123 dye in cells) (Pgp [3]): large increase of R123 dye
8 | COc1cccc(NC(=O)/C(=C/C=C/c2ccccc2)NC(=O)C=Cc2ccccc2)c1 [CAB-40, (2Z,4E)-2-cinnamamido-N-(3-methoxyphenyl)-5-phenylpenta-2,4-dienamide] | weak activities | 200 µM |  | 25 | 
9 | O=C(C=Cc1ccccc1)N/C(=C\C=C\c1ccccc1)C(=O)N1CCCC1 [CAB-41, N-((2Z,4E)-1-oxo-5-phenyl-1-(pyrrolidin-1-yl)penta-2,4-dien-2-yl)cinnamamide] |  | 50 µM | 7 | 25 | Survival x/50 in presence of CAB compounds at 50 μM (MDR-Pa): 5 x/50
10 | O=C(O)c1cn(C2CC2)c2cc(N3CCNCC3)c(F)cc2c1=O [Control (Cipro Only), ciprofloxacin, reference compound] |  | Died |  |  | 
11 | O=C(C=Cc1ccccc1)N/C(=C\C=C\c1ccccc1)C(=O)NCCO [CAB-37, (2Z,4E)-2-cinnamamido-N-(2-hydroxyethyl)-5-phenylpenta-2,4-dienamide] |  | 50 µM |  |  | Activity in C. elegans model (survival and motility), in words (MDR-Pa): did not show any activity
12 | CNC(=O)/C(=C/C=C/c1ccccc1)NC(=O)C=Cc1ccccc1 [CAB-35, (2Z,4E)-2-cinnamamido-N-methyl-5-phenylpenta-2,4-dienamide] |  | 200 µM |  | 15 | 
13 | CCCNC(=O)/C(=C/C=C/c1ccccc1)NC(=O)/C=C/c1ccccc1 [CAB-30] | highest chemosensitization; also recorded: most potent | 1.56 µM | 40 | 50 | Survival x/50 in presence of CAB compounds at 1.562 μM (MDR-Pa; 1.562 μM CAB compound + 100 μg/mL CPX): 20 x/50; Survival x/50 in presence of CAB compounds at 3.125 μM (MDR-Pa; 3.125 μM CAB compound + 100 μg/mL CPX): 20 x/50; Survival x/50 in presence of CAB compounds at 6.25 μM (MDR-Pa; 6.25 μM CAB compound + 100 μg/mL CPX): 20 x/50; Survival x/50 in presence of CAB compounds at 12.5 μM (MDR-Pa; 12.5 μM CAB compound + 100 μg/mL CPX): 20 x/50; Survival x/50 in presence of CAB compounds at 25 μM (MDR-Pa): 40 x/50; Survival x/50 in presence of CAB compounds at 50 μM (MDR-Pa): 40 x/50; Activity in C. elegans model (survival and motility), in words (MDR-Pa): highly potent; Pgp inhibition activities (Pgp [4]): undesired Pgp inhibition activities
